In US6624149B2, “Method for nucleic acid transfection of cells” (Genteric, Inc., priority 2000, dated 2003):

Legend:
[1] = tested on: rat salivary gland (submandibular gland); experiment: Intraductal transfection of rat salivary gland with pCMV.FOX.Luc-2, luciferase assay; type: in vivo; settings: 48 hours
Protocol: Nucleic acid/transition metal enhancer mixtures were prepared by sequentially adding deionized water or a buffered solution, DNA, and a desired transition metal enhancer to a polystyrene tube with mixing. “Free” (i.e., “Naked”) DNA controls were prepared by sequentially adding DNA to water or a buffered solution
Male Sprague-Dawley rats (260-280 g) were fasted the night prior to treatment. After administration of the anesthesia (see Section 6.1.3), both right and left salivary gland ducts (specifically, Wharton's duct) were cannulated with fine polyurethane tubing (i.d. 0.005″) and cemented into the desired location. Atropine was then administered subcutaneously (0.5 mg/kg) and, after eight minutes, 50 μl of the nucleic acid/transition metal enhancer mixture was injected, infused, instilled or administered at the ductal orifice or directly into the duct at any point along its length. See Goldfine, Nature Biotechnology 15:1378, 1997.
Regardless of whether a liposome/transition metal/nucleic acid mixture or a nucleic acid/transition metal enhancer mixture was delivered, the tubing and mixture was kept in place for ten additional minutes after application of the mixture prior to removal. At 48 hours post atropine administration, the rats were anesthetized by intraperitoneal injection of pentobarbital (50 mg/kg). The right and left submandibular glands were surgically removed, and the tissues were assayed for any observable reporter gene (luciferase of hGH) expression using the methods described below.
The presently claimed invention describes a new method using a combination of a transition metal enhancer and a nucleic acid of interest for gene delivery. The present invention provides a method which may enhance gene expression by improving the efficiency of gene delivery. This change in gene expression can be quantitated using various assays, such as the luciferase assay. de Wet et al., Molec. Cell Biol. 7:725, 1987. In various experiments described herein, the right and left submandibular glands were removed from the male Sprague-Dawley rats at 48 hours post administration of the pCMV.FOX.Luc-2 containing solution. In additional experiments other organs, such as the rat lungs, were used.
In experiments in which submandibular glands were tested, the amount of luciferase present in the right and left submandibular gland of each male Sprague-Dawley rat was measured independently and treated as separate, individual experiments (e.g., trials) because the amount of luciferase expressed by one submandibular gland is independent of the amount of luciferase expressed in the other submandibular gland. Therefore, each submandibular gland was independently lysed in lysis buffer (1.0 ml buffer per 0.1 g tissue) to create a lysis homogenate. The lysis buffer contained 100 mM K2PO4 pH 7.0, 1 mM dithiothreitol, and 1% Triton X-100. A 100 μl aliquot of lysis homogenate from each submandibular gland was analyzed for luciferase activity (de Wet et al., Molec. Cell Biol. 7:725, 1987) using a Monolight 2010 luminometer (Analytical Luminescence Laboratories). Accordingly, luciferase light emissions from each aliquot of the lysis homogenate were measured over a ten second period.
Activity was expressed as relative light units, values collectively representing the assay conditions, luciferase concentration, luminometer photomultiplier tube sensitivity and background. Using well known techniques, the luciferase light units may be converted, for example, to picograms of luciferase protein. See, e.g., Felgner et al., U.S. Pat. No. 5,580,899 at Example 13. All experiments were performed in duplicate. In experiments using submandibular glands, data from each individual submandibular gland lysis homogenate is reported as a single trial.

rat pancreas = experiment: Intraductal transfection of rat pancreas, luciferase assay; type: in vivo; settings: 64 μg pCMV.FOX.Luc-2 in 100 μL into bile duct, 48 hours, four trials; ZnCl2 absent or 1.8 mM
Protocol: Male Sprague-Dawley rats (weighing 260-280 g) were fasted the night prior to treatment. Care was taken to ensure that this procedure was conducted under sterile conditions. After anesthesia (see above) and laparotomy, the distal end of the bile duct (at the level of the duodenum) was ligated, the proximal end of the pancreas (at the porta hepatis level) was temporary blocked by a ligature, a PE-10 tubing was inserted through an incision of the bile duct near the duodenum. 0.1 ml of the selected nucleic acid/transition metal enhancer mixture was injected in a retrograde manner into the duct. Successful injection was confirmed by visible swelling of the gland. For administration to the liver, the proximal portion of the bile duct (prior to its entry into pancreatic tissue) was injected. After DNA delivery, a by-pass operation was done by directly introducing the bile flow to duodenum through the exterior end of the PE-10 tubing. After carefully ensuring the ligatures were secure, 1 ml of ampicillin (15 mg/ml) was injected into the peritoneal cavity and the incision was closed in one layer, combining fascia and skin with 3-0 silk suture. The closed incision was washed with dilute ethanol and the animal was monitored under a heat lamp until it was fully awake and ambulatory. The […] were terminated 48 hours after treatment. […]

[Cl-].[Cl-].[Zn+2] [ZnCl2, zinc chloride]
Average relative light units ([1]; Table 2, metal chloride 0.9 mM, 32 μg DNA in 50 μl, eight glands): 63842 relative light units
Average relative light units ([1]; Table 3, metal chloride 0.9 mM, 32 μg DNA in 50 μl, Tris-HCl/EDTA, eight glands): 5685 relative light units
Average relative light units ([1]; Table 6, zinc 3.6 mM, 128 μg DNA in 50 μl): 243362 relative light units
Average relative light units ([1]; Table 7, ZnCl2 3.6 mM, pH 5.5, 128 μg DNA in 50 μl): 252446 relative light units
Average relative light units ([1]; Table 7, ZnCl2 3.6 mM, pH 6.5, 128 μg DNA in 50 μl): 196002 relative light units
Average relative light units ([1]; Table 7, ZnCl2 3.6 mM, pH 7.5, 128 μg DNA in 50 μl): 260340 relative light units
Average relative light units ([1]; Table 7, ZnCl2 3.6 mM, pH 8.5, 128 μg DNA in 50 μl): 277958 relative light units
average luciferase activity (rat pancreas): 22028 relative luciferase light units per 10 mg of pancreatic tissue
